Experimental data published in patent EP0070049A1, “Derivative of acetylsalicylic acid having an analgetic, antipyretic, antiphlogistic and bronchosecretolytic activity” (UNIONE CHIMICA MEDICAMENTI- DIFME-S.p.A., priority 1981, dated 1983).

Tested on: oedème induit par carraghénine injectée dans la patte de rats
Test: Carrageenan-induced rat paw oedema (antiphlogistic activity, Winter et al)
Format: in vivo
Details: voie orale; for Volume de l'oedème - ml ± d.s. après 3 heures: 3 heures après le traitement oedémigène; for Volume de l'oedème - ml ± d.s. après 6 heures: 6 heures après le traitement oedémigène
Source text: L'activité antiphlogistique de l'acétylsalicylate de 2(o-méthoxy-phénoxy) éthanol a été évaluée en comparaison avec celle de l'acide acétylsalicylique sur la base de la variation de volume de l'oedème induit par carraghénine injectée dans la patte de rats, suivant la technique décrite par Winter et al (Proc. Soc. Exp. Biol. Med., volume III, page 544, 1962). Les résultats de l'élaboration des épreuves sont indiqués dans le Tableau 1, dans lequel le volume de l'oedème est indiqué en millilitres z la déviation standard, et il a été mesuré 3, 4,5 et 6 heures après le traitement oedémigène; la dose de substance est indiquée en milligrammes de substance administrée par voie orale pour chaque kilogramme de poids corporel des rats; les valeurs marquées par * correspondent à une probabilité d'erreur p < 0,05, les valeurs marquées correspondent à une probabilité d'erreur p < 0,01, calculées sur les valeurs des contrôles, et les valeurs indiquées entre parenthèses indiquent l'inhibition en pour-cent calculée par rapport aux contrôles.

COc1ccccc1OCCOC(=O)c1ccccc1OC(C)=O [acétylsalicylate de 2(o-méthoxy-phénoxy)éthanol]
inhibition en pour-cent calculée par rapport aux contrôles, après 3 heures (100 mg/Kg): 44,0 pour-cent
Volume de l'oedème - ml ± d.s. après 3 heures (100 mg/Kg): 0,380 ± 0,18 ml
inhibition en pour-cent calculée par rapport aux contrôles, après 4,5 heures (100 mg/Kg, 4,5 heures): 45,0 pour-cent
Volume de l'oedème - ml ± d.s. après 4,5 heures (100 mg/Kg, 4,5 heures après le traitement oedémigène): 0,333 ± 0,17 ml
inhibition en pour-cent calculée par rapport aux contrôles, après 6 heures (100 mg/Kg): 39,0 pour-cent
Volume de l'oedème - ml ± d.s. après 6 heures (100 mg/Kg): 0,291 ± 0,13 ml
inhibition en pour-cent calculée par rapport aux contrôles, après 3 heures (200 mg/Kg): 70,0 pour-cent
Volume de l'oedème - ml ± d.s. après 3 heures (200 mg/Kg): 0,20 + 0,1 ml
inhibition en pour-cent calculée par rapport aux contrôles, après 4,5 heures (200 mg/Kg, 4,5 heures): 67,0 pour-cent
Volume de l'oedème - ml ± d.s. après 4,5 heures (200 mg/Kg, 4,5 heures après le traitement oedémigène): 0,20 + 0,11 ml
inhibition en pour-cent calculée par rapport aux contrôles, après 6 heures (200 mg/Kg): 65,0 pour-cent
Volume de l'oedème - ml ± d.s. après 6 heures (200 mg/Kg): 0,16 + 0,1 ml
